In patent publication US6967196B1, “Sulfonamide compounds and uses thereof” (Bristol-Myers Squibb Company, priority 1999, dated 2005):
pIC50: −log10 of the molar value. Where a name gives a salt, the structure may show the parent alone. Read-outs that look alike come from different tables or passages of the source. One block for each compound: values may come before it.

Tested on: amyloid β production in transfected H4 (human neuroglioma) cells stably expressing APP constructs
Assay: In vitro cell-based assay of inhibitors of amyloid β production (ELISA)
Settings: amyloid β in medium by ELISA, read-out: ACTIVITY (IC50, inhibition of amyloid β production)
Outline: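 Plate wt/variant APP cells; ≥6 h later swap to medium + compound (10-100 μM screen); incubate ~16 h; sample medium; Aβ ELISA with C-terminal capture / N-terminal detection Abs; quantify vs Aβ standard curve.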

[1] = transfected H4 cells stably expressing APP, approximately 16 hours incubation, Table B
[2] = Homo sapiens, 16 h, transfected H4 cells expressing APP, approximately 16 hours incubation
[3] = transfected H4 cells stably expressing APP, approx. 16 h incubation
[4] = Homo sapiens, 16 h, transfected H4 cells stably expressing APP, approximately 16 hours incubation

Compound: O=S(=O)(c1ccc(Cl)cc1)N(Cc1ccccc1OCCCN1CCCCC1)C1CCOCC1 [Example 271, 4-Chloro-N-{2-[3-(1-piperidinyl)propoxy]benzyl}-N-tetrahydro-2H-pyran-4-ylbenzenesulfonamide hydrochloride]
pIC50 [1]: 7.30 to 7.60

pIC50 [1]: 6.30 to 7.00
Compound: N-{2-[2-(1-{[(4-chlorophenyl)sulfonyl]-2,5-difluoroanilino}ethyl)phenoxy]ethyl}-N-ethylpropanamide [Example 504]

pIC50 [2]: < 6.30
Compound: C[C@H](C(=O)N[C@@H](CO)CSCc1ccccc1)N(c1cc(Cl)ccc1F)S(=O)(=O)c1ccc(Cl)cc1 [Example 1343]

pIC50 [3]: 6.30 to 7.00
Compound: 2-((1R)-1-{[(4-chlorophenyl)-sulfonyl]-2,5-difluoroanilino}ethyl)benzyl benzyl(methyl)carbamate [Example 715]

pIC50 [3]: 6.30 to 7.00
Compound: methyl [[2-((1R)-1-{[(4-chlorophenyl)sulfonyl]-2,5-difluoroanilino}ethyl)benzyl]- [Example 798]

pIC50 [3]: 6.30 to 7.00
Compound: methyl (2S)-2-[[2-((1R)-1-{[(4-chlorophenyl)sulfonyl]-2,5-difluoroanilino}ethyl)benzyl](methyl)amino]propanoate [Example 779]

pIC50 [2]: ≥ 7.60
Compound: C[C@H](COC(=O)NC1CCCCC1)N(c1cc(Cl)ccc1CO)S(=O)(=O)c1ccc(Cl)cc1 [Example 1284]

pIC50 (transfected H4 cells stably expressing APP, approximately 16 hours incubation): < 6.30
Compound: N-{3-[2-({[(4-chlorophenyl)sulfonyl]-2,5-difluoroanilino}methyl)phenoxy]propyl}-3,4,5-trimethoxy-N-methylbenzamide [Example 989]

pIC50 [3]: 6.30 to 7.00
Compound: N-{3-[2-(1-{[(4-chlorophenyl)sulfonyl]-2,5-difluoroanilino}ethyl)phenoxy]propyl}-N-methyl-2-naphthalenesulfonamide [Example 671]

pIC50 [2]: 6.30 to 7.00
Compound: CC(C(=O)N[C@@H]1C[C@H]2CC[C@@H]1CC2)N(c1cc(Cl)ccc1F)S(=O)(=O)c1ccc(Cl)cc1 (stereo partly drawn) [Example 1358]

Compound: CC(CCCN)N(c1cc(Cl)ccc1Cl)S(=O)(=O)c1ccc(Cl)cc1 (stereo not drawn) [Example 1152]
pIC50 (transfected H4 cells stably expressing APP constructs, approximately 16 hours incubation): 6.30 to 7.00

Compound: CC(c1ccccc1OCCCn1ccnc1)N(c1cc(F)ccc1F)S(=O)(=O)c1ccc(Cl)cc1 (stereo not drawn) [Example 1046, 4-chloro-N-(2,5-difluorophenyl)-N-(1-{2-[3-(1H-imidazol-1-yl)propoxy]phenyl}ethyl)benzenesulfonamide hydrochloride]
pIC50 [4]: < 6.30

pIC50 [3]: 6.30 to 7.00
Compound: N-{3-[2-(1-{[(4-chlorophenyl)sulfonyl]-2,5-difluoroanilino}ethyl)phenoxy]propyl}-4-fluoro-N-methylbenzamide [Example 654]

pIC50 [4]: 6.30 to 7.00
Compound: O=S(=O)(c1ccc(Cl)cc1)N(Nc1cc(F)ccc1F)[C@H](CO)c1ccccc1 [Example 868, 4-chloro-N-(2,5-difluoroanilino)-N-[(1S)-2-hydroxy-1-phenylethyl]benzenesulfonamide]

pIC50 (Homo sapiens, 16 h, transfected H4 cells stably expressing APP constructs, approximately 16 hours incubation): < 5.00
Compound: CS(=O)(=O)c1ccc(N(Cc2ccccc2OCCCN2CCCCC2)S(=O)(=O)c2ccc(Cl)cc2)cc1 [Example 1094, 4-chloro-N-[4-(methylsulfonyl)phenyl]-N-{2-[3-(1-piperidinyl)propoxy]benzyl}benzenesulfonamide hydrochloride]

Compound: O=S(=O)(c1ccc(Cl)cc1)N(Cc1ccccc1OCCCN1CCC(O)CC1)c1ccccc1 [Example 298, 4-Chloro-N-{2-[3-(4-hydroxy-1-piperidinyl)propoxy]benzyl}-N-phenylbenzenesulfonamide Hydrochloride]
pIC50 [1]: 7.00 to 7.30

Compound: COC(=O)[C@H](CS(=O)(=O)Cc1cc(F)ccc1[C@@H](C)N(c1cc(F)ccc1F)S(=O)(=O)c1ccc(Cl)cc1)NC(=O)OC(C)(C)C [Example 469, Methyl (2R)-2-[(tert-butoxycarbonyl)amino]-3-{[2-((1R)-1-{[(4-chlorophenyl)sulfonyl]-2,5-difluoroanilino}ethyl)-5-fluorobenzyl]sulfonyl}propanoate]
pIC50 [1]: 7.00 to 7.30

pIC50 [3]: 6.30 to 7.00
Compound: C[C@H](C(=O)NCc1ccccn1)N(c1cc(Cl)ccc1F)S(=O)(=O)c1ccc(Cl)cc1 [Example 610]
